Assay results published in publication PMC3664202 (Bioorganic & medicinal chemistry letters, 2012).

How the values were obtained:
[1] = tested on: psoriasis and other inflammatory skin conditions; details: small clinical trial; cited from earlier work
Kv1.3 channels = Kv1.3 channels (Mus musculus, UniProt P16390); test: Kv1.3 blockade, manual whole-cell patch-clamp; type: cell-based; details: for decrease in Kv1.3 blocking activity/potency relative to diphenoxylate: fold less potent than diphenoxylate
Chain of Kv1.3 channels (P16390 whole entry): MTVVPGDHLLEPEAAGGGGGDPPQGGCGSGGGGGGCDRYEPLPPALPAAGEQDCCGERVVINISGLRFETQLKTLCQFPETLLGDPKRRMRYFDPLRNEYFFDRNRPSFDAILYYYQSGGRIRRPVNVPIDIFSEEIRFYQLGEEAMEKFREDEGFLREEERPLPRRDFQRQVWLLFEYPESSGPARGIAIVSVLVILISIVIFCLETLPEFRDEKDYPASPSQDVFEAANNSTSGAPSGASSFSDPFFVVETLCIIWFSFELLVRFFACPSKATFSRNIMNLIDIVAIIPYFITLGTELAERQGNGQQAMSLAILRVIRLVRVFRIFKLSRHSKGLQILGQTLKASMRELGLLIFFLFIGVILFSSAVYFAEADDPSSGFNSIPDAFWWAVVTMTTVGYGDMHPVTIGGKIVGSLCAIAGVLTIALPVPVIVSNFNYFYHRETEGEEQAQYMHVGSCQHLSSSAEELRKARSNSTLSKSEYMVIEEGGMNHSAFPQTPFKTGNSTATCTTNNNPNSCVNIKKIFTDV

[2] = tested on: delayed type hypersensitivity (DTH) and allergic contact dermatitis (ACD); details: Lewis rats; dosed orally, by i.p. injection or topically; cited from earlier work
[3] = cited from earlier work
[4] = tested on: adoptive transfer and chronic relapsing experimental autoimmune encephalomyelitis (EAE); details: rats; cited from earlier work

## CCOC(=O)C1(c2ccccc2)CCN(CCC(C#N)(c2ccccc2)c2ccccc2)CC1 [Compound 1, Diphenoxylate]
[1]
  clinical effect on psoriasis and other inflammatory skin conditions: successfully treat psoriasis and other inflammatory skin conditions

## CCOC(=O)C1CCN(CCC(C#N)(c2ccccc2)c2ccccc2)CC1 [Compound 6, Ethyl 1-(3-cyano-3,3-diphenylpropyl)piperidine-4-carboxylate]
Kv1.3 channels
  decrease in Kv1.3 blocking activity/potency relative to diphenoxylate: ~ 50 fold

## CCOC(=O)C1(c2ccccc2)CCN(CCC(c2ccccc2)c2ccccc2)CC1 [Compound 7, Ethyl 1-(3,3-diphenylpropyl)-4-phenylpiperidine-4-carboxylate]
Kv1.3 channels; fold more active than diphenoxylate
  more active than diphenoxylate (Kv1.3 blockade): 6 fold

## N#CC(CCN1CCCCC1)(c1ccccc1)c1ccccc1 [Compound 8, 2,2-diphenyl-4-(piperidin-1-yl)butanenitrile]
Kv1.3 channels
  decrease in Kv1.3 blocking activity/potency relative to diphenoxylate: 4 fold

## N#CC(CCN1CCCC(O)C1)(c1ccccc1)c1ccccc1 (stereo not shown) [Compound 15, 4-(3-hydroxypiperidin-1-yl)-2,2-diphenylbutanenitrile]
Kv1.3 channels
  IC50: > 100 µM

## OC1CCN(CCCc2ccccc2)CC1 [Compound 17, 1-(3-phenylpropyl)piperidin-4-ol]
Kv1.3 channels
  IC50: > 100 µM
Kv1.3 channels; removal of a cyano group plus a phenyl ring from 14
  Kv1.3 blocking activity (in words): no activity

## O=c1ccc2c(OCCCCOc3ccccc3)c3ccoc3cc2o1 [PAP-1]
[2]
  effect on DTH and ACD: suppress delayed type hypersensitivity (DTH) and allergic contact dermatitis (ACD)
[3]
  oral availability: 25%

## ShK
[4]
  effect on EAE: able to treat both adoptive transfer and chronic relapsing experimental autoimmune encephalomyelitis (EAE)
